From patent EP4427746A1, “TREATMENT OF DEMENTIA USING BORTEZOMIB OR PARBENDAZOLE” (Bash Biotech Inc, priority 2023, dated 2024)
Where two headings read alike, the source gives them in different places.

Tests used:
[1] = tested on: glioblastoma cell line U138MG; assay: Glutamate contents assay; type: cell-based; settings: U138MG cells after drug treatment, compared to cell viability, Figure 7
Text: (§1) A microplate reader was used to measure absorbances.
Drug efficacy describes how the drug-protein interaction manipulates the normal action of the protein. Glutamate content was examined at differing drug concentrations with the glutamate assay kit to measure drug efficacies. Abcam protocol (ab83389) was followed to quantitate glutamate content. Here, the protocols were summarized.
To prepare samples, cells were harvested, washed with cold PBS, resuspended in an assay buffer, homogenised, incubated for 15 - 30 min on ice, and centrifuged for 2 - 5 minutes at 4°C at top speed using a cold microcentrifuge. The supernatant was collected and transferred to a clean tube, then distributed to well plates.
To quantitate free glutamate levels, the reaction mixture was added to each standard and sample well. The background reaction mix was added to the background sample wells. Wells were mixed and incubated at 37°C for 30 minutes protected from light. Colour change was measured at OD = 450 nm (blue). Glutamate concentration was calculated as formulated in the protocol, then divided by relative cytotoxicity by MTT assay to extrapolate drug efficacy.

[2] = tested on: glioblastoma cell line U138MG
Procedure: (§3) Before performing these assays, the optimum cell count per well was decided by comparing the optical density for L-glutamate (ab120049) absorbance between DMEM-0819 (with glutamine) and DMEM-5671 (without glutamine) culture media, which was tested by glutamate assay kit from Abcam (Abcam PLC, Cambridge, UK) at 450 nm following its protocol, then cultured 20000 cells per well in DMEM-0819 with L-alanyl-L glutamine, adherently, treated with drugs dissolved in DMSO separately. To prepare LDH assay high control samples, cell lysis solution was added instead of drugs. Samples were incubated in a humidified incubator (at 37 °C, 5% CO2). A microplate reader was used to measure absorbances.
(§4) Tetrazolium reduction assay (MTT assays) and lactate dehydrogenase release assays (LDH assays) were conducted to assess cell metabolic activity (cell proliferation) and to measure cytotoxicity (drug toxicity). Abcam protocols (MTT: ab211091, LDH: ab65293) were followed. Here, both protocols were summarized.
(§5) Before adding assay solutions on day 1 (24 hours) and day 2 (48 hours), the drug treatment media were aspirated from plates and transferred to well plates.
(§6) For the MTT assay, serum-free media and MTT Reagent were added to each well. Control samples were prepared without using cells but serum-free media and MTT reagent. […] The reduction of MTT by mitochondrial succinate dehydrogenase was measured by reading absorbance at OD = 590 nm (yellow to purple). Cytotoxicity (CT) was calculated as a ratio of measures of absorbance of control wells (AbsC) and absorbance of sample-containing wells (AbsS) as below: CT = 100∗((AbsC−AbsS))/(AbsC) [formula]
(§7) For the LDH release assay, LDH reaction mix was added to wells. […] The release of LDH from cells due to damaged plasma membrane was measured by reading absorbance at OD = 450 nm (blue). Cytotoxicity (CT) was calculated as a ratio of measures of absorbance of low control wells (AbsLC), high control wells (AbsHC) sample wells (AbsS) as below: CT = 100∗((AbsS−AbsLC))/((AbsHC−AbsLC)) [formula]

glutaminase-2 = assay: Western blot for drug-induced glutaminase content; type: cell-based; settings: U138MG cells, Figure 8
Procedure: as §1
(§2) Drug-induced glutaminase content was measured by western. The cells were washed with PBS and lysed with CelLytic M (C2978, Sigma-Aldrich, Saint Louis, MO, USA) lysis buffer containing protease inhibitors. The lysates were centrifuged at 12,000 rotations per minute for 5 min, and the supernatant was collected. Proteins were separated by Mini-PROTEAN® TGXTM Precast Gels (BioRad, Berkeley, CA, USA) and transferred to a Trans-Blot Turbo Mini 0.2um PVDF Transfer Packs membrane (BioRad, Berkeley, CA, USA) by using Trans-Blot® TurboTM Transfer System (Bio-Rad, Berkeley, CA, USA). The antibodies for mitochondrial glutaminase-1 (kidney-type) and glutaminase-2 (liver-type) encoded from two GLS isomers and GAPDH were used for primary immunoblotting. All the antibodies were diluted at a 1:1000 concentration. DMSO was used as a blank reference. The membranes were incubated in primary antibody solution overnight at 4 °C with gentle rocking. The secondary antibody, goat Anti-Rabbit HRP (ab205718) or goat anti-mouse IgG-HRP (sc2005, Santa Cruz Biotechnology, Inc., Dallas, TX, USA), was blotted for 30 min at 4 °C with gentle rocking. The protein bands were detected with ImageQuant LAS 500 (29-0050-63)

glutaminase-1 = assay: Western blot for drug-induced glutaminase content; type: cell-based; settings: U138MG cells, Figure 8
Procedure: as §1, §2

[3] = tested on: glioblastoma cell line U138MG; assay: Drug toxicity: MTT assay and LDH release assay; settings: U138MG glial cells, MTT and LDH release assays, 24 and 48 hours, Figure 6
Procedure: as §3, §4, §5, §6, §7

Compound	glutamate levels [1]	drug toxicity (metabolic activity and cytotoxicity) [2]	drug affinity for glutaminase-2 (relative band intensities) (glutaminase-2)	drug affinity for glutaminase-1 (relative band intensities) (glutaminase-1)	drug toxicity (metabolic activity and cytotoxicity) [3]
CC(C)C[C@H](NC(=O)[C@H](Cc1ccccc1)NC(=O)c1cnccn1)B(O)O [bortezomib]	highly decreased	toxic for glial cells even at low concentrations	drastic	–	–
CC12CC3CC(C)(C1)CC(N)(C3)C2 [memantine]	highly decreased	insignificant	significant and higher affinity	significant drug affinity for glutaminase-1 could be measured for only comparably higher concentrations	–
CCCCc1ccc2[nH]c(NC(=O)OC)nc2c1 [parbendazole]	highly decreased	–	drastic	significant drug affinity for glutaminase-1 could be measured for only comparably higher concentrations	toxic for glial cells even at low concentrations
